Test results as given in US8658693B2, “4-aminobenzonitrile selective androgen receptor modulators” (Eli Lilly and Company, priority 2011, dated 2014).
Where two headings read alike, the source gives them in different places.

Tests used:
[1] = molecular target: T1, human GR (glucocorticoid receptor) (Homo sapiens, UniProt P04150); test: Steroid hormone nuclear receptor binding assay, GR
T1 construct: expressed in transfected cells; host or cells: HEK293
T1 sequence (P04150 1-777): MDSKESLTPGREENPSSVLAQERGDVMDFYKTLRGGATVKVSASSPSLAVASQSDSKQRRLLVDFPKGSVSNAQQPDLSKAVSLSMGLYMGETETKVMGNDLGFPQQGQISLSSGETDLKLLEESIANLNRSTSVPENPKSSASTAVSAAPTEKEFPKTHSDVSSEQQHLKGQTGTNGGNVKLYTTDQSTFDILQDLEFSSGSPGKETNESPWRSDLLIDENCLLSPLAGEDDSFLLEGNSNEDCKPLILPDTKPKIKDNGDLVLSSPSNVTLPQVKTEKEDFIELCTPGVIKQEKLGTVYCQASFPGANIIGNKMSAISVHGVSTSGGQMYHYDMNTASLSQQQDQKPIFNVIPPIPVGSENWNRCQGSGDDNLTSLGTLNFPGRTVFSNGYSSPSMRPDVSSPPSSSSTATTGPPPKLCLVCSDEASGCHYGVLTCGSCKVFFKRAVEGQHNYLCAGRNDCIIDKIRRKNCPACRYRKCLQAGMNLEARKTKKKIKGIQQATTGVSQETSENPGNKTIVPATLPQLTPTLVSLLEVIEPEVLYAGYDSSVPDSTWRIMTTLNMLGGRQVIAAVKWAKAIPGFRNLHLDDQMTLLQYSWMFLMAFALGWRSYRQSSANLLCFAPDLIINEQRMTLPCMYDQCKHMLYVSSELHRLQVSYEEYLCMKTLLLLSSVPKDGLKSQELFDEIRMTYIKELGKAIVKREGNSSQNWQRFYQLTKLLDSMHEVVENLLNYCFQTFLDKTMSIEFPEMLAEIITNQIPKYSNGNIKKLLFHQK

[2] = test system: HDL cholesterol in Cynomolgus monkeys; settings: transdermal delivery
[3] = molecular target: T2, human AR (androgen receptor) (Homo sapiens, UniProt P10275); test: Steroid hormone nuclear receptor binding assay, AR; settings: HEK293 lysate, [3H]-methyltrienolone
T2 construct: expressed in transfected cells; host or cells: HEK293
T2 sequence (P10275 1-920): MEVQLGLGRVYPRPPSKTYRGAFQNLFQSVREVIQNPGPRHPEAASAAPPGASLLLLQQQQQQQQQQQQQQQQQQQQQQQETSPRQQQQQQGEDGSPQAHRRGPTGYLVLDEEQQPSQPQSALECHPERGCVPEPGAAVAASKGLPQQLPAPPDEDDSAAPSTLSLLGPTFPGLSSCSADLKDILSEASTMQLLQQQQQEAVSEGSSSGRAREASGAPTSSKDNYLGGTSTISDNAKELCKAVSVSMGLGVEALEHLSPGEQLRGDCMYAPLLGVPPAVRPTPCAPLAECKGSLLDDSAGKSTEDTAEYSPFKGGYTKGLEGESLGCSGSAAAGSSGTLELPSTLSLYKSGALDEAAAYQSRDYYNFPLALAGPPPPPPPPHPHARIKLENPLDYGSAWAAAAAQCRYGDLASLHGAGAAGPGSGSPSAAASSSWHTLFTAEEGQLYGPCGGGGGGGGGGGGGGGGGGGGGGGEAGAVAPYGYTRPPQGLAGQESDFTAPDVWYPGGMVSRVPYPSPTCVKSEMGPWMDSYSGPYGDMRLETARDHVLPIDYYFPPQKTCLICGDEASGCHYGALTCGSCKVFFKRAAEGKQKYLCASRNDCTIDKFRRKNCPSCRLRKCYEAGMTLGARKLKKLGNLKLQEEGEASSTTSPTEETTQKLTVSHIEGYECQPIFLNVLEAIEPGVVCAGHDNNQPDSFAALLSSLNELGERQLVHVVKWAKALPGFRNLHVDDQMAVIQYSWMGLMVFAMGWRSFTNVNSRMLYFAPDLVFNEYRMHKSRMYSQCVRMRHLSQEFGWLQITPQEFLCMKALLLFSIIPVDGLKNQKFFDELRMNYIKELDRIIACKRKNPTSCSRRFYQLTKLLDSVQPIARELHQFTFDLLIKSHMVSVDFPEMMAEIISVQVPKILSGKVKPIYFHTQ

[4] = molecular target: T3, human MR (mineralocorticoid receptor) (Homo sapiens, UniProt P08235); test: Steroid hormone nuclear receptor binding assay, MR; settings: HEK293 lysate, [3H]-aldosterone
T3 construct: expressed in transfected cells; host or cells: HEK293
T3 sequence (P08235 1-984): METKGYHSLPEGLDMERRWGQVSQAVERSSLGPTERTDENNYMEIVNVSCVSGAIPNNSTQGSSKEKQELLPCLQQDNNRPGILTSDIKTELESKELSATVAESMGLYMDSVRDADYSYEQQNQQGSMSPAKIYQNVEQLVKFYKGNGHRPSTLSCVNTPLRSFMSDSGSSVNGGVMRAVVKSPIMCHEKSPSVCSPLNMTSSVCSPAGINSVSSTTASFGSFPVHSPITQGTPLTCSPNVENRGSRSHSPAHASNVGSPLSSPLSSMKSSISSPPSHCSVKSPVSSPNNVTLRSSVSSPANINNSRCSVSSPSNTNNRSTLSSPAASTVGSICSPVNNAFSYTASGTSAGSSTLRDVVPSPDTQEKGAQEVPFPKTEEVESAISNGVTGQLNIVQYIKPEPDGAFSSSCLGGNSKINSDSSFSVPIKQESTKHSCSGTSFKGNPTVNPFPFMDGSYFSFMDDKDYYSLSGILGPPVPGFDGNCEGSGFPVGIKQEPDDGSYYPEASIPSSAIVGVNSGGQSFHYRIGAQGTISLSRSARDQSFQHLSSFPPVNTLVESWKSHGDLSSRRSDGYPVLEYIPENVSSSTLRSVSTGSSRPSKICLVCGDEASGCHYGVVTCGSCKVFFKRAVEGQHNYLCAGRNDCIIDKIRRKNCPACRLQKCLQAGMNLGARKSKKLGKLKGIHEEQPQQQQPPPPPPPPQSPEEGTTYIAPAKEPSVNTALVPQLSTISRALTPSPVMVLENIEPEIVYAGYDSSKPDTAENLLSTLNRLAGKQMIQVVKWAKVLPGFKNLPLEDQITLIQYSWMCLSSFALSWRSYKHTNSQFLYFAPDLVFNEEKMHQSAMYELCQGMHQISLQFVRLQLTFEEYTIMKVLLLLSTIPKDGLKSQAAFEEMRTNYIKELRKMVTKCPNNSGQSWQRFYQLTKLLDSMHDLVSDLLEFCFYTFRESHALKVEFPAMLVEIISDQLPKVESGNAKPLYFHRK

[5] = molecular target: T4, human PR (progesterone receptor) (Homo sapiens, UniProt P06401); test: Steroid hormone nuclear receptor binding assay, PR; settings: HEK293 lysate, [3H]-methyltrienolone
T4 construct: expressed in transfected cells; host or cells: HEK293
T4 sequence (P06401 1-933): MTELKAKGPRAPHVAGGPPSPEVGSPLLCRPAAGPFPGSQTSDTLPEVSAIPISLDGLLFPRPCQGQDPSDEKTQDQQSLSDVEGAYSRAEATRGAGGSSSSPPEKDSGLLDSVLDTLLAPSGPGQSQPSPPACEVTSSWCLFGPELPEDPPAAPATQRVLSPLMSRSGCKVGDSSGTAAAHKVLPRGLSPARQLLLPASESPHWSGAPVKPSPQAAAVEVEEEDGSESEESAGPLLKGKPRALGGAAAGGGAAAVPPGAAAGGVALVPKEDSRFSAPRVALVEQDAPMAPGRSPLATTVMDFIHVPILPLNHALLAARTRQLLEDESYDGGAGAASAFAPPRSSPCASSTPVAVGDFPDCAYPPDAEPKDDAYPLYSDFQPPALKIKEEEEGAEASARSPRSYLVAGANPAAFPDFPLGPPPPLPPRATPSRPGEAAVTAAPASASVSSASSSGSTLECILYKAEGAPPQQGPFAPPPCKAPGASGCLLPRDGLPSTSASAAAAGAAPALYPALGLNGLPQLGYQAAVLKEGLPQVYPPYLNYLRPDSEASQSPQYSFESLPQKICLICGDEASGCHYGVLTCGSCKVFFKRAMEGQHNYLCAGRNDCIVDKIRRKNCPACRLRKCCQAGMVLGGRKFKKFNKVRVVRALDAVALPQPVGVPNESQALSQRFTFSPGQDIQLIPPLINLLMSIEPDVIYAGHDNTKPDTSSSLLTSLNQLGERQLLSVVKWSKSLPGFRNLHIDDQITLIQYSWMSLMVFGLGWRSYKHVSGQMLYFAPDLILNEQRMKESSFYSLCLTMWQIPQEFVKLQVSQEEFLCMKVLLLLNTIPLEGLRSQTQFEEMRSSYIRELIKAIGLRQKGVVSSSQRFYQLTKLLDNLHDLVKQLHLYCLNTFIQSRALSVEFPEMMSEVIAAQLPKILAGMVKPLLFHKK

[6] = molecular target: T5, human androgen receptor (AR) (Homo sapiens, UniProt P10275); test: C2C12 AR/ARE reporter assay; format: cell-based; settings: mouse myoblast C2C12 cells, luciferase reporter, 24 h
T5 construct: expressed in transfected cells; host or cells: mouse myoblast C2C12 cells
T5 sequence (P10275 1-920): T2 sequence (P10275 1-920)

[7] = HEK293 lysate, [3H]-dexamethasone, read-out: GR (Ki nM)

**Q.** `Cc1c(N[C@@H]2CCC[C@@]2(C)O)ccc(C#N)c1Cl` (single isomer, unassigned) [Example 1] was tested. Which Ki [1] did it give?
**A.** > 6020 nM

**Q.** And the “effect on HDL” value [2]?
**A.** minimal effect

**Q.** `Cc1c(N[C@H]2CC[C@H](O)[C@]2(C)O)ccc(C#N)c1Cl` (single isomer, unassigned) [Example 20] was tested. Which Ki [3] did it give?
**A.** 38.1 nM

**Q.** What about the Ki [1, 7] of the same molecule?
**A.** > 5730 nM

**Q.** And the Ki [4]?
**A.** > 7150 nM

**Q.** What about the Ki [5] of the same molecule?
**A.** > 7960 nM

**Q.** What about the EC50 [6] of the same molecule?
**A.** 0.146 µM

**Q.** `CCc1c(NC2CCOCC2(C)O)ccc(C#N)c1Cl` (single isomer, unassigned; diastereomer 2) [Example 32, 2-Chloro-3-ethyl-4-[[3-hydroxy-3-methyl-tetrahydropyran-4-yl]amino]benzonitrile, Diastereomer 2] was tested. Which Ki [3] did it give?
**A.** 162 nM

**Q.** And the Ki [1, 7]?
**A.** > 5820 nM

**Q.** What about the Ki [4] of the same molecule?
**A.** 3960 nM

**Q.** And the Ki [5]?
**A.** 4290 nM

**Q.** What about the EC50 [6] of the same molecule?
**A.** 0.274 µM
